Experimental data: patent US7507727B2, “Substituted quinobenzoxazine analogs and methods of using thereof” (Cylene Pharmaceuticals, Inc., priority 2003, dated 2009)

How the values were obtained:
[1] = system: BCl-2 quadruplex (BCL2-97); experiment: Direct interaction assay; assay type: binding
Excerpt: (§1) Direct Interaction Assay. Compounds may be evaluated for their ability to interact directly with nucleic acids capable of forming a quadruplex structure, wherein the nucleic acid is not a telomeric nucleic acid. The assay may be performed in the same or different vessels. For example, a compound may be contacted with each nucleic acid in the same vessel. Alternatively, a compound may be separately contacted with each of the nucleic acids tested in a different vessel. A telomeric nucleic acid as used herein represents a region of highly repetitive nucleic acid at the end of a chromosome. As used herein, a direct interaction is measured without the presence of a competitor nucleic acid.
(§2) An interaction between the compound and the nucleic acid may be determined for example, by measuring IC50 values, which are indicative of the binding and/or quadruplex stabilization. The selectivity of interactions may be determined, for example, by comparing measured IC50 values. For example, the-lowest IC50 values may be used to indicate a strong interaction between the compound and the nucleic acid, while highest IC50 values show a poor interaction; thus, showing selectivity of interaction. The reaction products were characterized by capillary electrophoresis.
(§3) Using a direct interaction assay, CX-3543 was screened for its ability to bind to and/or stabilize different types of quadruplexes. In this example, a 5′-fluorescent-labeled (FAM) primer (P45, 15 nM) is mixed with template DNA (15 nM) in a Tris-HCL buffer (15 mM Tris, pH 7.5) containing 10 mM MgCl2, 0.1 mM EDTA and 0.1 mM mixed deoxynucleotide triphosphates (dNTP's). The mixture is denatured at 95° C. for 5 minutes and, after cooling down to room temperature, is incubated at 37° C. for 15 minutes. After cooling down to room temperature, 1 mM KCl and the test compound at various concentrations are added, and the mixture incubated for 15 minutes at room temperature. The primer extension is performed by adding […] and Taq DNA Polymerase (2.5 U/reaction, Promega), and incubating at 70° C. for 20 minutes.

[2] = system: H-RAS quadruplex (HRAS-85); experiment: Direct interaction assay; assay type: binding
Excerpt: as §1, §2, §3

[3] = system: HMGA-2 quadruplex (HMGA-97); experiment: Direct interaction assay; assay type: binding
Excerpt: as §1, §2, §3

[4] = system: Hum Tel quadruplex (Humtel-95); experiment: Direct interaction assay; assay type: binding
Excerpt: as §1, §2, §3

SRC quadruplex (SRC89) = experiment: Direct interaction assay; assay type: binding
Excerpt: as §1, §2, §3

[5] = system: TGF-β quadruplex (TGFB3-81); experiment: Direct interaction assay; assay type: binding
Excerpt: as §1, §2, §3

c-myc quadruplex (MYC99) = experiment: Direct interaction assay; assay type: binding
Excerpt: as §1, §2, §3

i-motif (IMOTIF99) = experiment: Direct interaction assay; assay type: binding
Excerpt: as §1, §2, §3

HCT-116 cells = experiment: Annexin V-Alexa 488 staining; assay type: cell-based; details: 2 uM and 4 uM, 24 hr
Method: The following protocol was followed for this example. […] Incubate o/n or up to 24 hrs at 37° C. in CO2 incubator. […] Keep one or two untreated plates (medium only) as control plates. […] Harvest cells (collect attached as well as floating cells). Wash cells twice with cold PBS. Re-suspend cells in 1× Annexin binding buffer.
Count cells and dilute in 1× Annexin binding buffer to ˜1×10^6 cells/0.1 ml, preparing a sufficient volume to have 100 μl per assay. Add 5 μl of the Annexin V conjugate to each 100 μl of cell suspension. Add 4 μl of propidium iodide solution (stock=1 mg/ml) to each 100 μl of cell suspension. Incubate sample at RT for 15 minutes. Add 400 μl Annexin binding buffer, mix gently and keep samples on ice. Analyze stained cells immediately by flow cytometry.

Q: What does the source list for `CN1CCCC1CCNC(=O)c1cn2c3c(c(N4CCC(c5cnccn5)C4)c(F)cc3c1=O)Oc1cc3ccccc3cc1-2` (centres unmarked) [CX-3543]?
A: interaction with quadruplex ([1]; BCl-2, chair-eller / basket quadruplex): less strongly; IC50 ([1]; insert BCL-2): 2000 nM; interaction with quadruplex ([2]; H-RAS, propeller quadruplex): strongly; IC50 ([2]; insert H-RAS): 1100 nM; interaction with quadruplex ([3]; HMGA-2, heptad-tetrad): weakly; IC50 ([3]; insert HMGA): > 10000 nM; interaction with quadruplex ([4]; Hum Tel, chair-eller / basket quadruplex): less strongly; IC50 ([4]; insert HumTel): 3300 nM; interaction with quadruplex (SRC quadruplex (SRC89); SRC, heptad-tetrad): weakly; IC50 (SRC quadruplex (SRC89); insert SRC): > 10000 nM; interaction with quadruplex ([5]; TGF-β, propeller quadruplex): strongly; IC50 ([5]; insert TGF-β): 1300 nM; interaction with quadruplex (c-myc quadruplex (MYC99); c-myc, propeller quadruplex): strongly; IC50 (c-myc quadruplex (MYC99); insert c-MYC): 600 nM; interaction with quadruplex (i-motif (IMOTIF99); i-motif): weakly; IC50 (i-motif (IMOTIF99); insert I-Motif): > 10000 nM; staining by a dye positive for Annexin V externalization (HCT-116 cells): significant increased staining
